Assay results reported in US12552770B2, “Compounds for treating respiratory disease” (TMEM16A Limited, priority 2020, dated 2026).

Biological target: T1, human TMEM16A (TMEM16Aabc variant) (Homo sapiens, UniProt Q5XXA6, DEL476-501)
T1 sequence (Q5XXA6 with tags, fused parts or gaps isoform Q5XXA6-5 DEL539-564): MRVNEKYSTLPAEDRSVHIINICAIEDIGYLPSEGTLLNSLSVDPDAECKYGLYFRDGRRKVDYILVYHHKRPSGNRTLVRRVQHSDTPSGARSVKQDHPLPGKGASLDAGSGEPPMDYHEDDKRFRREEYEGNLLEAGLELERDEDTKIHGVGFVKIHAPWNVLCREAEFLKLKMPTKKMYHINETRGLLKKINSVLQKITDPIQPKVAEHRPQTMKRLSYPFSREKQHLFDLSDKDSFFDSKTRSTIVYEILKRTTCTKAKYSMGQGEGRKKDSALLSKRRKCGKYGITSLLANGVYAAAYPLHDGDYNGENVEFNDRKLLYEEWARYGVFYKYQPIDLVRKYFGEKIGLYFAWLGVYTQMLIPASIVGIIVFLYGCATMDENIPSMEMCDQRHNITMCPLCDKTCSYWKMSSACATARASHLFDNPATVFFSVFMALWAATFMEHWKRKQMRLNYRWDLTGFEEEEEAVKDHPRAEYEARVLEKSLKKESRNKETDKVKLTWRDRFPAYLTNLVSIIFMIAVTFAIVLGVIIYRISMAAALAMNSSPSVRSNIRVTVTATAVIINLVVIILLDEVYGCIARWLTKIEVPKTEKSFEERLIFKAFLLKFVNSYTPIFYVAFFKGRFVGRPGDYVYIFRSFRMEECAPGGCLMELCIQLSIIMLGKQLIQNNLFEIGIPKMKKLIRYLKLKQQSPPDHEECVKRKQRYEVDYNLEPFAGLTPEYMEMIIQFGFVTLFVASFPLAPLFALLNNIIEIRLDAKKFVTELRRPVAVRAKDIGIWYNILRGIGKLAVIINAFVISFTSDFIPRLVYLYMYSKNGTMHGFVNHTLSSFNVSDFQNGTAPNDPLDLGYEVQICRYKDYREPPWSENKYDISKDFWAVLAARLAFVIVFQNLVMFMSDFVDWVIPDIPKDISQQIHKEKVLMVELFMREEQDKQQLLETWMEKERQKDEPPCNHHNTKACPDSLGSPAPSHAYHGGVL
Assay: Automated whole-cell patch clamp (Qpatch) TMEM16A potentiator assay in recombinant cells
Assay type: cell-based
Settings: FRT cells stably expressing human TMEM16A, intracellular calcium at EC20; for % Potentiation @ 3.33 μM Avg: 3.33 μM solution of test compound, percentage increase of baseline TMEM16A current, peak current at +70 mV; for EC50: calculated from cumulative concentration response curve, whole-cell patch clamp
Description: Automated Whole-Cell Patch Clamp Assay to Detect TMEM16A Activity in Recombinant Cells
Cell Culture and Preparation
Fisher rat thyroid (FRT) cells stably expressing human TMEM16A (TMEM16Aabc variant; Dr Luis Galietta, Insituto Giannina, Italy) were cultured in T-75 flasks in Hams F-12 media with Coon's modification (Sigma) supplemented with 10% (v/v) foetal bovine serum, penicillin-streptomycin (10,000 U/mL/10000 μg/mL), G-418 (750 μg/mL), L-glutamine (2 mM) and sodium bicarbonate solution (7.5% v/v). At ˜90% confluence cells were harvested for experiments by detachment with a 2:1 (v/v) mixture of Detachin (BMS Biotechnology) and 0.25% (w/v) trypsin-EDTA. Cells were diluted to a density of 3.5-4.5×10^6 cells/mL with media consisting of CHO-S-SFM II (Sigma), 25 mM HEPES (Sigma) and Soy bean trypsin inhibitor (Sigma).
Whole-Cell Patch Clamp Recording
FRT-TMEM16A cells were whole-cell patch clamped using an automated planar patch clamp system (Qpatch, Sophion). Briefly, once high resistance (GOhm) seals were established between the cells and the planar recording array the patch was ruptured using suction pulses to establish the whole-cell recording configuration of the patch clamp technique. The assay employed the following solutions (all reagents Sigma):
Intracellular solution (mM): N-methyl-D-glucamine 130, CaCl2 18.2, MgCl2 1, HEPES 10, EGTA 10, BAPTA 20, Mg-ATP 2, pH 7.25, 325 mOsm with sucrose.
Extracellular solution (mM): N-methyl-D-glucamine 130, CaCl2 2, MgCl2 1, HEPES 10, pH 7.3, 320 mOsm with sucrose.
The intracellular solution buffers intracellular calcium at levels required to give ˜20% activation of the maximal TMEM16A mediated current (EC20 for calcium ions). Cells were voltage clamped at a holding potential of −70 mV and a combined voltage step (to +70 mV)/ramp (−90 my to +90 mV) was applied at 0.05 Hz. After a period of current stabilisation test compounds, solubilised in 100% (v/v) DMSO and subsequently diluted into extracellular solution, were applied to generate a cumulative concentration response curve. Each concentration of test compound was incubated for 5 minutes before addition of the next concentration. After the final concentration was tested a supramaximal concentration of either a known active positive modulator or the TMEM16A inhibitor, CaCCinhA01 (Del La Fuente et al, 2008) was added to define the upper and lower limits of the assay.
Compound activity was quantified by measuring the increase in current upon compound addition and expressing this as a percentage increase of baseline TMEM16A current level. Percentage increases in current were determined for each concentration and the data plotted as a function of concentration using either the Qpatch software or Graphpad Prism v6.05 providing the concentration which gave 50% of its maximal effect (EC50) and maximum efficacy (percentage of baseline increase).
In FIG. 1, IBL equals baseline current, I[#1] equals the peak current during test compound concentration 1 incubation period and so on.
Peak TMEM16A current at +70 mV was plotted as a function of time over the assay period. Baseline current (IBL) was measured after a period of stabilisation. The increase in current for each compound addition was determined by taking the peak current during the incubation period and subtracting the current from the previous recording period and then expressing this as a percentage of the baseline current. For test compound concentration 1 in FIG. 1 this is:
For each additional concentration tested the increase in current was determined by subtracting the current from the previous incubation period and normalising the baseline value—for test concentration 2 in FIG. 1 this is:
The values for each test concentration were plotted as a cumulative function of concentration e.g. for test concentration two this would be the sum of the peak changes measured during concentration one plus concentration two.

SMILES	% Potentiation @ 3.33 μM Avg [%]	EC50 [nM]
CC1(c2nc3ccc(C(=O)NCC4CCCCCC4)cc3[nH]2)CCC1 [Example 28, N-(Cycloheptylmethyl)-2-(1-methylcyclobutyl)-3H-benzimidazole-5-carboxamide]	82	610
CC(C)(CO)c1cc(F)c(CNC(=O)c2ccc3[nH]c(C4(C(F)(F)F)CC4)nc3c2)cc1O [Example 30, N-[[2-Fluoro-5-hydroxy-4-(2-hydroxy-1,1-dimethyl-ethyl)phenyl]methyl]-2-[1-(trifluoromethyl)cyclopropyl]-1H-benzimidazole-5-carboxamide]	66	
CC(C)(CO)c1cc(F)cc(Cc2nc3cc(C(=O)NCC4(C(F)(F)F)CC4)ccc3[nH]2)c1O [Example 32, 2-[[5-Fluoro-2-hydroxy-3-(2-hydroxy-1,1-dimethyl-ethyl)phenyl]methyl]-N-[[1-(trifluoromethyl)cyclopropyl]methyl]-1H-benzimidazole-5-carboxamide]	56.6	227

Continued, values first:

% Potentiation @ 3.33 μM Avg [%]	EC50 [nM]	SMILES
183	496	CC(C)(CO)c1cc(F)c(Cc2nc3cc(C(=O)NCC4(C(F)(F)F)CC4)ccc3[nH]2)cc1O [Example 29, 2-[[2-Fluoro-5-hydroxy-4-(2-hydroxy-1,1-dimethyl-ethyl)phenyl]methyl]-N-[[1-(trifluoromethyl)cyclopropyl]methyl]-1H-benzimidazole-5-carboxamide]
158		CC(C)(O)c1cc(F)c(Cc2nc3cc(C(=O)NCCC(F)(F)F)ccc3[nH]2)cc1O [Example 31, 2-[[2-Fluoro-5-hydroxy-4-(1-hydroxy-1-methyl-ethyl)phenyl]methyl]-N-(3,3,3-trifluoropropyl)-1H-benzimidazole-5-carboxamide]
108		CC(C)(O)c1cc(F)c(Cc2nc3cc(C(=O)NC4(C(F)(F)F)CC4)ccc3[nH]2)cc1O [Example 31.1, 2-[[2-Fluoro-5-hydroxy-4-(1-hydroxy-1-methyl-ethyl)phenyl]methyl]-N-[1-(trifluoromethyl)cyclopropyl]-1H-benzimidazole-5-carboxamide]
